Experimental findings from ChEMBL document CHEMBL2424569, “Synthesis of halogenated derivatives of thymol and their antimicrobial activities” (2013) are described below.

Structures are written as SMILES. Converted amounts (≈) assume the structure as drawn. The source made the active and inactive calls. The calls are words filed in the database; no cut-off is given here.

Common to all, as to type: functional
In experiment [1] the test system is Klebsiella pneumoniae. In words: Antibacterial activity against Klebsiella pneumoniae at MIC after 48 hrs by disc diffusion assay. In general terms: Agar diffusion results depend on both activity and mobility in agar.
The subject of experiment [2] is Escherichia coli. Briefly: Antibacterial activity against Escherichia coli by two-fold serial dilution assay.
The subject of experiment [3] is Staphylococcus aureus. Briefly: Antibacterial activity against Staphylococcus aureus at MIC after 48 hrs by disc diffusion assay.
Experiment [4] has as its system Candida albicans. In words: Antifungal activity against Candida albicans MTCC by two-fold serial dilution assay.
Experiment [5] relates to Staphylococcus epidermidis. In words: Antibacterial activity against Staphylococcus epidermidis at MIC after 48 hrs by disc diffusion assay.
Experiment [6] has as its system Candida albicans. In words: Antifungal activity against Candida albicans AI by two-fold serial dilution assay.
Experiment [7] concerns Escherichia coli. Briefly: Antibacterial activity against Escherichia coli at MIC after 48 hrs by disc diffusion assay.
The test system of experiment [8] is Staphylococcus epidermidis. In words: Antibacterial activity against Staphylococcus epidermidis by two-fold serial dilution assay.
The subject of experiment [9] is Streptococcus mutans. Briefly: Antibacterial activity against Streptococcus mutans by two-fold serial dilution assay.
In experiment [10] the test system is Enterococcus faecalis. Briefly: Antibacterial activity against Enterococcus faecalis by two-fold serial dilution assay.
In experiment [11] the test system is Candida albicans. In words: Antifungal activity against Candida albicans CN at MIC after 7 to 10 days by disc diffusion assay.
The test system of experiment [12] is Enterococcus faecalis. In words: Antibacterial activity against Enterococcus faecalis at MIC after 48 hrs by disc diffusion assay.
The test system of experiment [13] is Klebsiella aerogenes. Briefly: Antibacterial activity against Enterobacter aerogenes by two-fold serial dilution assay.
In experiment [14] the test system is Klebsiella pneumoniae. Briefly: Antibacterial activity against Klebsiella pneumoniae by two-fold serial dilution assay.
Experiment [15] relates to Candida albicans. In words: Antifungal activity against Candida albicans CN by two-fold serial dilution assay.
Experiment [16] has as its system Candida albicans. In words: Antifungal activity against Candida albicans MTCC at MIC after 7 to 10 days by disc diffusion assay.
Experiment [17] concerns Staphylococcus aureus. Briefly: Antibacterial activity against Staphylococcus aureus by two-fold serial dilution assay.
The subject of experiment [18] is Candida albicans. In words: Antifungal activity against Candida albicans AI at MIC after 7 to 10 days by disc diffusion assay.
Experiment [19] concerns Streptococcus mutans. Briefly: Antibacterial activity against Streptococcus mutans at MIC after 48 hrs by disc diffusion assay.
The subject of experiment [20] is Klebsiella aerogenes. Briefly: Antibacterial activity against Enterobacter aerogenes at MIC after 48 hrs by disc diffusion assay.

Take `Cc1c(Cl)cc(C(C)C)c(O)c1Br`: the result in experiment [1], in experiment [2], in experiment [3], in experiment [4], in experiment [5] and in experiment [6] was inactive. The result in experiment [7], in experiment [8], in experiment [9], in experiment [10], in experiment [11] and in [12] was inactive. The outcome in experiment [13], in experiment [14], in experiment [15], in experiment [16], in experiment [17] and in experiment [18] was inactive. In addition, the outcome in experiment [19] and in experiment [20] was inactive.
With `COc1c(C(C)C)ccc(C)c1Br`, the outcome in experiment [1], in experiment [2], in [3], in experiment [4], in [5] and in [6] was inactive. Moreover, the result in experiment [7], in experiment [8], in experiment [9], in experiment [10], in experiment [11] and in experiment [12] was inactive. Also, the outcome in experiment [13], in experiment [14], in experiment [15], in experiment [16], in experiment [17] and in experiment [18] was inactive. Also, the outcome in experiment [19] and in experiment [20] was inactive.
By MIC is commonly meant the least concentration at which growth counts as inhibited. On to `Cc1ccc(C(C)C)c(O)c1Br`, for which the outcome in [4], in experiment [6], in [11], in [15], in [16] and in experiment [18] was inactive. The MIC in [9] was 125 µg/mL (≈ 546 µM); in experiment [13], 100 µg/mL (≈ 436 µM). Moreover, the “inhibition zone (IZ)” value in experiment [19] turned out to be 3 mm; in experiment [20], 2 mm.
As for `C[C@@H]1[C@H](O)[C@@H](C)/C=C/C=C/C=C/C=C/C=C/C=C/C=C/[C@H](O[C@@H]2O[C@H](C)[C@@H](O)[C@H](N)[C@@H]2O)C[C@@H]2O[C@](O)(C[C@@H](O)C[C@@H](O)[C@H](O)CC[C@@H](O)C[C@@H](O)CC(=O)O[C@H]1C)C[C@H](O)[C@H]2C(=O)O` [AMPHOTERICIN B], the minimum inhibitory concentration (MIC) in [4], in experiment [6] and in [15] was 100 µg/mL (≈ 108 µM) in each case. In addition, the figures for the “inhibition zone (IZ)” value in experiment [11], in experiment [16] and in experiment [18] were 10 mm, 20 mm and 30 mm, respectively.
As for `CN[C@@H]1[C@H](O[C@H]2[C@H](O[C@H]3[C@H](O)[C@@H](O)[C@H](N=C(N)N)[C@@H](O)[C@@H]3N=C(N)N)O[C@@H](C)[C@]2(O)C=O)O[C@@H](CO)[C@H](O)[C@H]1O` [STREPTOMYCIN], the “inhibition zone (IZ)” value in experiment [1] amounted to 9 mm; in experiment [3], 9 mm; in experiment [5] it was 9 mm; in [7], 9 mm; in experiment [12], 10 mm; in experiment [19], 13 mm. Also, the “inhibition zone (IZ)” value in [20] is recorded as 10 mm. The minimum inhibitory concentration (MIC) in experiment [2] was 1.35 µg/mL (≈ 2.32 µM); in experiment [8], 6.35 µg/mL (≈ 10.9 µM); in experiment [9] it was 6.35 µg/mL (≈ 10.9 µM); in experiment [10], 0.36 µg/mL (≈ 0.619 µM); in experiment [13] it was 2.71 µg/mL (≈ 4.66 µM); in [14], 2.71 µg/mL (≈ 4.66 µM). In experiment [17], this compound showed an MIC of 12.5 µg/mL (≈ 21.5 µM).
As to `Cc1ccc(C(C)C)c(O)c1` [THYMOL], the “inhibition zone (IZ)” value is given as 6 mm in experiment [1]; 12 mm in experiment [3]; 18 mm in experiment [5]; 3 mm in [7]; 6 mm in [11]; 10 mm in experiment [12]. Also, the “inhibition zone (IZ)” value in experiment [16] is on record as 8 mm; in experiment [18], 5 mm; in experiment [19], 11 mm; in [20], 8 mm. The MIC stood at 100 µg/mL (≈ 666 µM) in experiment [2]; 100 µg/mL (≈ 666 µM) in [4]; 100 µg/mL (≈ 666 µM) in experiment [6]; 32.2 µg/mL (≈ 215 µM) in experiment [8]; 62.5 µg/mL (≈ 416 µM) in [9]; 62.5 µg/mL (≈ 416 µM) in [10]. For the same compound, the minimal inhibitory concentration (MIC) in experiment [13] turned out to be 125 µg/mL (≈ 832 µM); in [14], 250 µg/mL (≈ 1660 µM); in [15], 100 µg/mL (≈ 666 µM); in [17] it was 125 µg/mL (≈ 832 µM).
As for `COc1cc(C)c(I)cc1C(C)C`, the outcome in experiment [1], in experiment [2], in experiment [3], in experiment [4], in experiment [5] and in [6] was inactive. Also, the result in experiment [7], in experiment [8], in experiment [9], in [10], in [11] and in [12] was inactive. Besides, the outcome in experiment [13], in [14], in experiment [15], in experiment [16], in [17] and in experiment [18] was inactive. The outcome in [19] and in [20] was inactive.
In the case of `COc1cc(C)ccc1C(C)C`, the result in experiment [1], in experiment [2], in experiment [3], in [4], in experiment [5] and in experiment [6] was inactive. Besides, the outcome in experiment [7], in experiment [8], in [9], in [10], in experiment [11] and in experiment [12] was inactive. In addition, the result in [13], in [14], in experiment [15], in experiment [16], in experiment [17] and in experiment [18] was inactive. Besides, the result in experiment [19] and in [20] was inactive.
Regarding `Cc1cc(O)c(C(C)C)cc1Cl` [CHLOROTHYMOL], the “inhibition zone (IZ)” value was 5 mm in [3]; 6 mm in experiment [5]; 10 mm in experiment [11]; 20 mm in experiment [16]; 30 mm in experiment [18]. Besides, the MIC in experiment [4] stood at 100 µg/mL (≈ 542 µM); in [6], 100 µg/mL (≈ 542 µM); in experiment [8], 25 µg/mL (≈ 135 µM); in experiment [15] it was 100 µg/mL (≈ 542 µM); in experiment [17] it was 12.5 µg/mL (≈ 67.7 µM).
With `Cc1c(Cl)cc(C(C)C)c(O)c1Cl`, the result in experiment [1], in experiment [2], in experiment [3], in experiment [4], in experiment [5] and in [6] was inactive. Also, the outcome in experiment [7], in [8], in experiment [9], in experiment [10], in [11] and in [12] was inactive. The outcome in experiment [13], in [14], in [15], in experiment [16], in experiment [17] and in experiment [18] was inactive. Further, the outcome in experiment [19] and in experiment [20] was inactive.
For `Cc1c(Br)cc(C(C)C)c(O)c1Br`, the “inhibition zone (IZ)” value in experiment [3] was determined as 13 mm; in [5] it was 16 mm. Moreover, the outcome in [4], in experiment [6], in experiment [11], in experiment [15], in experiment [16] and in experiment [18] was inactive. The MIC is 1000 µg/mL (≈ 3250 µM) in experiment [8] and 250 µg/mL (≈ 812 µM) in experiment [17].
